Assay results reported in patent US20260234180A1, “AMINO ACID DERIVATIVE, PREPARATION METHOD THEREFOR, AND PHARMACEUTICAL COMPOSITION FOR TREATING HEPATITIS, COMPRISING SAME” (priority 2021, published 2026).

System: HBV virus
Experiment: HBV infection of HepG2-NTCP cells, Southern blot analysis
Format: cell-based, hepatitis B virus (HBV)
Conditions: 20 μM
Protocol: Specifically, the HepG2-NTCP cell line was cultured on a 6-well plate, incubation was performed overnight, HBV inhibitors were treated at a concentration of 20 μM, and the positive control Myrcludex-B (MyrB) was treated at a concentration of 200 nM, followed by culture for 24 hours. After HBV infection into the cells to make HBV 3000 genome equivalent per ml/cell (Geq/cell), the cell culture medium was replaced (medium changing, MC) a day after the viral infection to remove the virus unattached to cell membranes. In order to measure an amount of virus that entered the cell, medium changing (MC) was performed once more 4 days after viral infection. 2 days after replacement, HBeAg ELISA analysis was performed using a supernatant, and Southern blot analysis was performed with cell pellets.
First, the cell pellets were pipetted with 100 μl of HEPES lysis buffer (10 mM HEPES, 100 mM NaCl, 1 mM EDTA, 1% NP-40), placed on ice for 20 minutes, and then centrifuged with a centrifuge under the conditions at 4° C. and 13000 rpm. After transferring the supernatant only to the new microtube, 4.5 μl of nuclease buffer I (10 mM CaCl2), 12 mM MgCl2, DNase 10 units) was added to carry out a reaction at 37° C. for 2 hours, and 40 μl of 26% PEG solution was added, followed by a reaction on ice for 1 hour. After centrifuging with the centrifuge at 4° C. and 13000 rpm for 30 minutes, and the supernatant was removed cleanly. After releasing the pellets with 100 μl of nuclease buffer II (10 mM Tris, 8 mM CaCl2), 6 mM MgCl2), 287.5 μl of 0.5% SDS buffer (25 mM Tris, 10 mM EDTA, 0.5% SDS, 100 mM NaCl) was added, and 12.5 μl of 20 mg/ml proteinase K was added, followed by a reaction at 37° C. for 2 hours. 400 μl of phenol-chloroform-isoamyl alcohol was added, centrifugation was performed at room temperature at 13000 rpm after voltexing, the supernatant was transferred to a new tube, 40 μl of 3 M NaOAc was added, and 800 μl of 100% ethanol was added for inverting, followed by a reaction overnight at −20° C. After performing centrifugation at 4° C. and 13000 rpm for 30 minutes, 800 μl of 70% ethanol was added and mixed to the pellet obtained by removing the supernatant, centrifugation was performed at 4° C. and 13000 rpm for 10 minutes, and then the supernatant was discarded. The ethanol was dried for 5 minutes to leave only the HBV DNA pellets, and then the pellets were dissolved again in 15 μl of TE buffer (10 mM Tris, 1 mM EDTA). HBV DNA samples were loaded in 1% agarose gel, and electrophoresis was performed. It was then immersed in denature buffer (0.25 N NaOH, 1 M NaCl) for 30 minutes to denature dsDNA of HBV into ssDNA. The DNA in the gel was transferred to a Nylon membrane using a transfer buffer (0.4 M NaOH), the membrane was soaked with a 2×SSC buffer (sigma, cat #85639) for neutralization, followed by drying in air. The membrane was immersed in a church buffer (10% BSA, 0.5 M EDTA, 1 M NaPi, 20% SDS), and the radioisotopes were hybridized using a Mega prime kit (GE healthcare, RPN1607). After washing three times with washing buffer (2×SSC, 0.1% SDS), measurement was performed using radioisotope measurement equipment, and a relative replication rate (%) to the negative control group (Mock) was calculated and shown.

CC[C@@H](C)[C@H](NC(=O)CC[C@@H](C)[C@H]1CC[C@H]2[C@@H]3CC[C@@H]4C[C@H](O)CC[C@]4(C)[C@H]3CC[C@]12C)C(=O)O [Example 1, (2S,3R)-2-((R)-4-((3R,5R,8R,9S,10S,13R,14S,17R)-3-hydroxy-10,13-dimethyl-hexadecahydro-1H-cyclopenta[a]phenanthren-17-yl)pentanamido)-3-methylpentanoic acid]
amount of HBeAg DNA detected compared to the negative control group (Mock): relatively less amount

CC(C)[C@H](NC(=O)CC[C@@H](C)[C@H]1CC[C@H]2[C@@H]3CC[C@@H]4C[C@H](O)CC[C@]4(C)[C@H]3CC[C@]12C)C(=O)O [Example 44, (S)-2-((R)-4-((3R,5R,8R,9S,10S,13R,14S,17R)-3-hydroxy-10,13-dimethyl-hexadecahydro-1H-cyclopenta[a]phenanthren-17-yl)pentanamido)-3-methylbutanoic acid]
amount of HBeAg DNA detected compared to the negative control group (Mock): relatively less amount

CC(C)[C@H](NC(=O)CC[C@@H](C)[C@H]1CC[C@H]2[C@@H]3[C@@H](O)C[C@@H]4C[C@H](O)CC[C@]4(C)[C@H]3CC[C@]12C)C(=O)O [Example 3, (S)-2-((R)-4-((3R,5S,7S,8R,9S,10S,13R,14S,17R)-3,7-dihydroxy-10,13-dimethyl-hexadecahydro-1H-cyclopenta[a]phenanthren-17-yl)pentanamido)-3-methylbutanoic acid]
amount of HBeAg DNA detected compared to the negative control group (Mock): relatively less amount

CC[C@@H](C)[C@H](NC(=O)CC[C@@H](C)[C@H]1CC[C@H]2[C@@H]3[C@@H](O)C[C@@H]4C[C@H](O)CC[C@]4(C)[C@H]3CC[C@]12C)C(=O)O [Example 2, (2S,3R)-2-((R)-4-((3R,5S,7S,8R,9S,10S,13R,14S,17R)-3,7-dihydroxy-10,13-dimethyl-hexadecahydro-1H-cyclopenta[a]phenanthren-17-yl)pentanamido)-3-methylpentanoic acid]
amount of HBeAg DNA detected compared to the negative control group (Mock): relatively less amount

CC[C@@H](C)[C@H](NC(=O)CC[C@@H](C)[C@H]1CC[C@H]2[C@@H]3CC[C@@H]4C[C@H](O)CC[C@]4(C)[C@H]3C[C@H](O)[C@]12C)C(=O)O [Example 10, (2S,3R)-2-((R)-4-((3R,5R,8R,9S,10S,12S,13R,14S,17R)-3,12-dihydroxy-10,13-dimethyl-hexadecahydro-1H-cyclopenta[a]phenanthren-17-yl)pentanamido)-3-methylpentanoic acid]
amount of HBeAg DNA detected compared to the negative control group (Mock): relatively less amount
